The values that follow come from PubChem BioAssay (NCI).

Among the test systems are IGROV1 ovarian; K-562 leukemia; MCF7 breast; NCI-H522 lung; CCRF-CEM leukemia; NCI-H460 lung; HCT-15 colon; MDA-MB-435; OVCAR-8 ovarian; MOLT-4 leukemia; LOX IMVI melanoma; HOP-92 NSCLC; TK-10 renal; SK-MEL-2 melanoma; UACC-62 melanoma; NCI/ADR-RES ovarian; A498 renal; SF-295 CNS; SN12C renal; SK-MEL-28 melanoma.
Common to all, as to assay: NCI tumour cell line growth inhibition, 48 h

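Exposure lasted 48 hours, with cells grown in 96-well plates and compounds tested at five concentrations. TGI is the concentration that stops growth completely.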 Where only a bound is given, the exact number is not on record here.

As for `CCCCc1ccc(Nc2nc(Cl)c3ncn(COCCOC(C)=O)c3n2)cc1`, the TGI is 31.6 µM in the assay with IGROV1 ovarian; 55.5 µM in the assay with K-562 leukemia; 93.7 µM with MCF7 breast; 42.9 µM in the assay on NCI-H522 lung; over 100 µM in the assay with CCRF-CEM leukemia; 32.9 µM in the assay on NCI-H460 lung. Besides, the TGI came out at 31.6 µM in the assay on HCT-15 colon; 33.1 µM with MDA-MB-435; 32.6 µM in the assay on OVCAR-8 ovarian; 61.8 µM in the assay on MOLT-4 leukemia; 27.9 µM with LOX IMVI melanoma; 5.33 µM with HOP-92 NSCLC. Besides, the TGI in the assay on TK-10 renal was found to be 35.1 µM; with SK-MEL-2 melanoma, 31.5 µM; in the assay with UACC-62 melanoma it was 31.9 µM; in the assay on NCI/ADR-RES ovarian, 35.7 µM; with A498 renal, 59.3 µM; in the assay on SF-295 CNS, 33.9 µM. In the assay with SN12C renal, this compound came in with a TGI of 39.8 µM.

On to `COC(=O)CCC(C)[C@H]1CCC2C3C(C[C@H](OC(C)=O)[C@@]21C)[C@@]1(C)CCC2(C[C@H]1C[C@H]3OC(C)=O)OOC1(CCCC1)OO2` (some centres not stated), for which the TGI in the assay on IGROV1 ovarian is 25.4 µM; with K-562 leukemia it was over 100 µM; in the assay on MCF7 breast, over 100 µM; with NCI-H522 lung, over 100 µM; in the assay on CCRF-CEM leukemia, over 100 µM; with NCI-H460 lung, over 100 µM. The TGI with SK-MEL-28 melanoma, in the assay with HCT-15 colon, with MDA-MB-435, in the assay on OVCAR-8 ovarian, in the assay with MOLT-4 leukemia and in the assay with LOX IMVI melanoma was over 100 µM in each case. For the same compound, the TGI with HOP-92 NSCLC was 64.8 µM; with TK-10 renal it was over 100 µM; in the assay with SK-MEL-2 melanoma, over 100 µM; in the assay on NCI/ADR-RES ovarian, over 100 µM; in the assay on A498 renal, over 100 µM; in the assay with SF-295 CNS it was over 100 µM. In the assay with SN12C renal, the TGI is over 100 µM.

As for `O=C(O)CSCc1cc2c(O)c(c1)Cc1cc(CSCC(=O)O)cc(c1O)Cc1cc(CSCC(=O)O)cc(c1O)Cc1cc(CSCC(=O)O)cc(c1O)C2`, the TGI in the assay with IGROV1 ovarian, in the assay on K-562 leukemia, in the assay with MCF7 breast, with NCI-H522 lung, with CCRF-CEM leukemia and with NCI-H460 lung was over 100 µM in each case. The TGI in the assay on SK-MEL-28 melanoma, in the assay on HCT-15 colon, with MDA-MB-435, in the assay with OVCAR-8 ovarian, with MOLT-4 leukemia and in the assay on LOX IMVI melanoma was over 100 µM throughout. Moreover, the TGI with HOP-92 NSCLC, in the assay on TK-10 renal, in the assay with SK-MEL-2 melanoma, in the assay with NCI/ADR-RES ovarian, in the assay on A498 renal and with SF-295 CNS was over 100 µM throughout. The compound also returned a TGI in the assay with SN12C renal of over 100 µM.

For the compound `C[Si](C)(C)C#Cc1cc(-c2nc3ccccc3s2)ccc1N`, the TGI in the assay on IGROV1 ovarian worked out at 13.2 µM; in the assay on K-562 leukemia, 70.6 µM; with MCF7 breast, 12 µM; in the assay on NCI-H522 lung, 27.3 µM; in the assay with CCRF-CEM leukemia it was 59.4 µM; in the assay on NCI-H460 lung, 31.1 µM. Further, the TGI in the assay with HCT-15 colon stood at 32.1 µM; with MDA-MB-435, 34.1 µM; in the assay on OVCAR-8 ovarian, 32.3 µM; with MOLT-4 leukemia it was 97.4 µM; in the assay on LOX IMVI melanoma, 34 µM; in the assay with HOP-92 NSCLC it was 27.8 µM. Further, the TGI in the assay with TK-10 renal was determined as 26.2 µM; with UACC-62 melanoma it was 33.2 µM; in the assay with NCI/ADR-RES ovarian it was 32.3 µM; in the assay on A498 renal it was 35 µM; with SF-295 CNS it was 33.7 µM; in the assay on SN12C renal, 30.1 µM.

In the case of `O=Cc1c2n(c3ccccc13)N[C@@](Cc1ccc(O)cc1)(C(=O)O)C2`, the TGI with IGROV1 ovarian, in the assay with K-562 leukemia, in the assay on MCF7 breast, in the assay on NCI-H522 lung, in the assay on CCRF-CEM leukemia and in the assay with SK-MEL-28 melanoma was over 100 µM in each case. Also, the TGI in the assay with HCT-15 colon, in the assay with MDA-MB-435, in the assay on OVCAR-8 ovarian, in the assay on MOLT-4 leukemia, in the assay on LOX IMVI melanoma and in the assay on HOP-92 NSCLC was over 100 µM each time. The TGI with TK-10 renal, with SK-MEL-2 melanoma, with UACC-62 melanoma, with NCI/ADR-RES ovarian, in the assay on A498 renal and in the assay with SF-295 CNS was over 100 µM in each case.

On to `Cc1ccc(S(=O)(=O)N2CCN(S(=O)(=O)c3ccc(C)cc3)CCN(S(=O)(=O)c3ccc(C)cc3)Cc3cc(C#N)c(C#N)cc3CN(S(=O)(=O)c3ccc(C)cc3)CC2)cc1`, for which the TGI in the assay on IGROV1 ovarian, with K-562 leukemia, in the assay with MCF7 breast, in the assay with NCI-H522 lung, with CCRF-CEM leukemia and with NCI-H460 lung was over 100 µM in each case. Also, the TGI with SK-MEL-28 melanoma, in the assay with HCT-15 colon, with MDA-MB-435, in the assay with OVCAR-8 ovarian, in the assay with MOLT-4 leukemia and in the assay with LOX IMVI melanoma was over 100 µM in each case. Besides, the TGI in the assay on HOP-92 NSCLC was 89.3 µM; in the assay with TK-10 renal, over 100 µM; in the assay with UACC-62 melanoma, over 100 µM; with NCI/ADR-RES ovarian, over 100 µM; in the assay on A498 renal, 58.2 µM; in the assay with SF-295 CNS, over 100 µM. Moreover, the TGI in the assay on SN12C renal was over 100 µM.
